Reference: patent US4014875A, “Process of making di or tribromomethanesulfonamides” (The Dow Chemical Company, priority 1975, dated 1977)
≈ marks a conversion by molar mass, not a printed value.

Columns and labels:
Format in all cases: cell-based
[1] = tested on: Ceratocystis ips; test: agar dilution test, growth inhibition of Ceratocystis ips; conditions: Ci = Ceratocystis ips; 100% growth inhibition (kills); read-out: Minimum Growth Inhibitory Concentration
Procedure: (§1) In representative operations, compounds of the present invention were tested for their activity as antimicrobials using conventional agar dilution tests. The following Table presents results, expressed as concentration of toxicant in parts per million to achieve 100% growth inhibition (kills) of the indicated organisms.

[2] = tested on: R. nigricans; test: agar dilution test, growth inhibition of R. nigricans; conditions: Rhizopus stolonifer; Rn = R. nigricans; 100% growth inhibition (kills); read-out: Minimum Growth Inhibitory Concentration
Procedure: as §1

[3] = tested on: C. albicans; test: agar dilution test, growth inhibition of C. albicans; conditions: Candida albicans; Ca = C. albicans; 100% growth inhibition (kills); read-out: Minimum Growth Inhibitory Concentration
Procedure: as §1

[4] = tested on: Trichoderm Sp. Madison P-42; test: agar dilution test, growth inhibition of Trichoderm Sp. Madison P-42; conditions: Ts = Trichoderm Sp. Madison P-42; 100% growth inhibition (kills); read-out: Minimum Growth Inhibitory Concentration
Procedure: as §1

[5] = tested on: M. phlei; test: agar dilution test, growth inhibition of M. phlei; conditions: Mycolicibacterium phlei; Mp = M. phlei; 100% growth inhibition (kills); read-out: Minimum Growth Inhibitory Concentration
Procedure: as §1

[6] = tested on: Cephaloascus fragans; test: agar dilution test, growth inhibition of Cephaloascus fragans; conditions: Cf = Cephaloascus fragans; 100% growth inhibition (kills); read-out: Minimum Growth Inhibitory Concentration
Procedure: as §1

[7] = tested on: P. pullulans; test: agar dilution test, growth inhibition of P. pullulans; conditions: Pp = P. pullulans; 100% growth inhibition (kills); read-out: Minimum Growth Inhibitory Concentration
Procedure: as §1

[8] = tested on: S. aureus; test: agar dilution test, growth inhibition of S. aureus; conditions: Staphylococcus aureus; Sa = S. aureus; 100% growth inhibition (kills); read-out: Minimum Growth Inhibitory Concentration
Procedure: as §1

[9] = tested on: B. subtilis; test: agar dilution test, growth inhibition of B. subtilis; design: key to Minimum Growth Inhibitory Concentration: *: 50% control at 500 ppm; conditions: Bs = B. subtilis, 100% growth inhibition (kills); for MIC: Bacillus subtilis, read-out: Minimum Growth Inhibitory Concentration
Procedure: as §1

[10] = tested on: T, mentagrophytes; test: agar dilution test, growth inhibition of T, mentagrophytes; conditions: Tm = T, 100% growth inhibition (kills), read-out: Minimum Growth Inhibitory Concentration
Procedure: as §1

[11] = tested on: P. aeruginosa; test: agar dilution test, growth inhibition of P. aeruginosa; conditions: Pseudomonas aeruginosa; Pa = P. aeruginosa; 100% growth inhibition (kills); read-out: Minimum Growth Inhibitory Concentration
Procedure: as §1

[12] = tested on: A. terreus; test: agar dilution test, growth inhibition of A. terreus; conditions: Aspergillus terreus; At = A. terreus; 100% growth inhibition (kills); read-out: Minimum Growth Inhibitory Concentration
Procedure: as §1

[13] = tested on: C. pelliculosa; test: agar dilution test, growth inhibition of C. pelliculosa; conditions: Hansenula anomala; Cp = C. pelliculosa; 100% growth inhibition (kills); read-out: Minimum Growth Inhibitory Concentration
Procedure: as §1

[14] = tested on: S. typhosa; test: agar dilution test, growth inhibition of S. typhosa; conditions: St = S. typhosa; 100% growth inhibition (kills); read-out: Minimum Growth Inhibitory Concentration
Procedure: as §1

| SMILES | MIC [1] [µg/mL] | MIC [2] [µg/mL] | MIC [3] [µg/mL] | MIC [4] [µg/mL] | MIC [5] [µg/mL] | MIC [6] [µg/mL] | MIC [7] [µg/mL] | MIC [8] [µg/mL] | MIC [9] [µg/mL] | MIC [10] [µg/mL] | MIC [11] [µg/mL] | MIC [12] [µg/mL] | MIC [13] [µg/mL] | MIC [14] [µg/mL] | Minimum Growth Inhibitory Concentration [9] |
| --- | --- | --- | --- | --- | --- | --- | --- | --- | --- | --- | --- | --- | --- | --- | --- |
| CC1CN(S(=O)(=O)C(Br)(Br)Br)CC(C)O1 (stereo not shown) [1 (a), 2,6-Dimethyl-4-((tribromomethyl)sulfonyl)morpholine] | 100 (≈ 233 µM) | 100 (≈ 233 µM) | 100 (≈ 233 µM) | 100 (≈ 233 µM) | 100 (≈ 233 µM) | 100 (≈ 233 µM) | 100 (≈ 233 µM) | 500 (≈ 1160 µM) | 100 (≈ 233 µM) | 100 (≈ 233 µM) | 100 (≈ 233 µM) | 10 (≈ 23.3 µM) | 100 (≈ 233 µM) |  |  |
| CC1CN(S(=O)(=O)C(Br)Br)CC(C)O1 (stereo not shown) [1 (b), 2,6-Dimethyl-4-((dibromomethyl)sulfonyl)morpholine] | > 500 | 500 (≈ 1420 µM) | 500 (≈ 1420 µM) | > 500 | > 500 | 500 (≈ 1420 µM) | 500 (≈ 1420 µM) | > 500 |  | 500 (≈ 1420 µM) | > 500 | 500 (≈ 1420 µM) | 500 (≈ 1420 µM) | > 500 | * |
| O=S(=O)(N1CCOCC1)C(Br)(Br)Br [2 (b)] | 100 (≈ 249 µM) | 100 (≈ 249 µM) | 100 (≈ 249 µM) | 100 (≈ 249 µM) | 100 (≈ 249 µM) | 100 (≈ 249 µM) | 100 (≈ 249 µM) | 500 (≈ 1240 µM) | 100 (≈ 249 µM) | 100 (≈ 249 µM) | 100 (≈ 249 µM) | 100 (≈ 249 µM) | 100 (≈ 249 µM) |  |  |
